Experimental data taken from US20090036410A1, “Structured Phospholipids” (BTG INTERNATIONAL LIMITED, priority 2004, published 2009).

What was measured:
[1] = test system: CREAE model MOG in C57BL mice; assay: CREAE model, MOG-induced, clinical EAE score; type: in vivo
[2] = Storage stability / handling of the isolated phospholipid; type: physicochemical
Excerpt: Suitable diluents and carriers can be found in the literature in texts such as Remington's Pharmaceutical Sciences. One particular material investigated by the inventors has been PEG (polyethylene glycol) eg. PEG200. This can be used at amounts between 1 and 99% PEG to 99% to 1% by weight of active phospholipid, preferably 20 to 80% PEG to 80 to 20% of phospholipid and more preferably 40 to 60% PEG to 60 to 40% by weight of phospholipid.
The invention provides a first method of its preparation of compounds GGPc, DHGLADHGLAPc and AAPc in a one step process (scheme 5, method A) by reaction of sn-glycerophosphocholine cadmium complex with γ-linolenic, dihomo-γ-linolenic, or arachidonic anhydride (formed eg. from the n-6 acid and dicylohexylcarbodiimide). Purification of the crude product uses eg. copper sulfate washes to remove DMAP and column chromatography to take out other by-products. The first batch of product for the γ-linolenic product (44 g, 85% purity) was obtained as a yellow wax.
On a 7 g scale higher purity GGPc could be obtained by more rigorous chromatography. Furthermore freeze-drying a dioxan solution of this material gave a white solid. This solid was hygroscopic and gained weight and went to a foam on prolonged exposure to the atmosphere.

acute rat EAE = settings: depending on dose; cited from earlier work
EAE = settings: guinea-pig; cited from earlier work

Row | purity after storage (deterioration) ([2]; over 6 months, first batch, initially 85% purity yellow wax, turned brown suggesting oxidation) [%] | hygroscopicity of freeze-dried white solid ([2]; prolonged exposure to the atmosphere, gained weight and went to a foam) | Structure (SMILES) | effect on EAE score compared to CCC (dose response curve) ([1]; 100 microL dose, p<0.050 compared to CCC (150 microL)) | protection / severity of CREAE ([1]; 100 ul of 50% phospholipid in PEG200) | efficacy in the CREAE model compared to the lipid GGG of PCT/GB2004/003524 ([1]; MOG in C57BL mice, oral, initial results) | protection in CREAE ([1]; dose 100 ul, oral) | shape of dose response curve ([1]; doses 25, 50, 100 and 200 microL) | effect on EAE score (dose response curve) ([1]; higher dose of 200microL) | protection in acute rat EAE (acute rat EAE) | effect on incidence and severity of EAE (EAE)
1 | 70 | hygroscopic | CCCCC/C=C\C/C=C\C/C=C\CCCCC(=O)OC[C@H](COP(=O)([O-])OCC[N+](C)(C)C)OC(=O)CCCC/C=C\C/C=C\C/C=C\CCCCC [GGPc, 1,2-Di(γ-linolenyl)-sn-glycerophosphocholine] | significant effect | protection/reduced severity | superior in efficacy | excellent protection | bell shaped curve | no effect | – | –
2 | – | – | CCCCC/C=C\C/C=C\CCCCCCCC(=O)O [linoleic acid] | – | – | – | – | – | – | dose-dependent action on the clinical severity but did not abolish it | partially suppresses
3 | – | – | CCCCC/C=C\C/C=C\C/C=C\CCCCC(=O)O [γ-linolenic acid] | – | – | – | – | – | – | fully protective | –
